# According to PubChem BioAssay (NCI):
#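 Cultured in 96-well plates, cells were exposed to test compound for 48 hours across five concentrations. Abbreviation: GI50, concentration required for 50% inhibition of growth. TGI denotes the concentration required for complete inhibition of growth.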
# Assays:
# Experiment in all cases: DTP human tumour cell line panel, 48 h
# [1] = test system: 786-0 renal
# [2] = test system: A498 renal
# [3] = test system: A549 NSCLC
# [4] = test system: ACHN renal
# [5] = test system: BT-549 breast
# [6] = test system: CAKI-1 renal
# [7] = test system: CCRF-CEM leukemia
# [8] = test system: COLO 205 colon
# [9] = test system: DU-145 prostate
# [10] = test system: HCC-2998 colon
# [11] = test system: HCT-116 colon
# [12] = test system: HCT-15 colon
# [13] = test system: HL-60(TB) leukemia
# [14] = test system: HOP-62 NSCLC
# [15] = test system: HOP-92 NSCLC
# [16] = test system: HS 578T breast
# [17] = test system: HT29 colon
# [18] = test system: IGROV1 ovarian
# [19] = test system: K-562 leukemia
# [20] = test system: KM12 colon
# [21] = test system: LOX IMVI melanoma
# [22] = test system: M14 melanoma
# [23] = test system: MALME-3M melanoma
# [24] = test system: MCF7 breast
# [25] = test system: MDA-MB-231 breast
# [26] = test system: MDA-MB-435
# [27] = test system: MOLT-4 leukemia
# [28] = test system: NCI-H226 lung
# [29] = test system: NCI-H23 lung
compound,measurement,setting,value
Cc1cc(=O)n2nnc3c4ccccc4ccc3n12,GI50,[1],8.25 µM
same,TGI,[1],20.6 µM
same,GI50,[2],11.2 µM
same,TGI,[2],23.2 µM
same,GI50,[3],10.8 µM
same,TGI,[3],23.8 µM
same,GI50,[4],1.58 µM
same,TGI,[4],2.97 µM
same,GI50,[5],7.76 µM
same,TGI,[5],21.1 µM
same,GI50,[6],1.64 µM
same,TGI,[6],3.33 µM
same,GI50,[7],1.06 µM
same,TGI,[7],3.91 µM
same,GI50,[8],2.97 µM
same,TGI,[8],8.77 µM
same,GI50,[9],11.3 µM
same,TGI,[9],23.4 µM
same,GI50,[10],16.5 µM
same,TGI,[10],30.9 µM
same,GI50,[11],1.85 µM
same,TGI,[11],3.46 µM
same,GI50,[12],2.86 µM
same,TGI,[12],10.4 µM
same,GI50,[13],11.5 µM
same,TGI,[13],37.2 µM
same,GI50,[14],6.11 µM
same,TGI,[14],20.9 µM
same,GI50,[15],0.942 µM
same,TGI,[15],15 µM
same,GI50,[16],15.2 µM
same,TGI,[16],49 µM
same,GI50,[17],2.36 µM
same,TGI,[17],5.57 µM
same,GI50,[18],1.96 µM
same,TGI,[18],4.52 µM
same,GI50,[19],1.8 µM
same,TGI,[19],7.85 µM
same,GI50,[20],10.6 µM
same,TGI,[20],22.6 µM
same,GI50,[21],4.42 µM
same,TGI,[21],16.2 µM
same,GI50,[22],13.5 µM
same,TGI,[22],27.1 µM
same,GI50,[23],2.08 µM
same,TGI,[23],8.19 µM
same,GI50,[24],2.86 µM
same,TGI,[24],10.5 µM
same,GI50,[25],11.4 µM
same,TGI,[25],23.7 µM
same,GI50,[26],14.3 µM
same,TGI,[26],29.9 µM
same,GI50,[27],3.39 µM
same,TGI,[27],19.5 µM
same,GI50,[28],7.64 µM
same,TGI,[28],27.1 µM
same,GI50,[29],12.4 µM
